Measurements as given in patent US7456165B2, “HCV NS5B inhibitors” (Bristol-Myers Squibb Company, priority 2006, dated 2008).
Read-outs that look alike come from different tables or passages of the source.

Key:
[1] = biological target: T1, HCV NS5B (Hepatitis C virus genotype 1b, UniProt Q9WMX2); experiment: HCV NS5B RdRp enzyme assay (preincubation protocol); format: biochemical; details: HCV NS5B RdRp genotype 1b
T1 construct: The protein was expressed with an 18 amino acid C-terminal truncation to enhance the solubility; made in house; host or cells: E. coli BL21(DE3)
Description: HCV NS5B RdRp cloning, expression, and purification. The cDNA encoding the NS5B protein of HCV, genotype 1b, was cloned into the pET21a expression vector. The protein was expressed with an 18 amino acid C-terminal truncation to enhance the solubility. The E. coli competent cell line BL21(DE3) was used for expression of the protein. Cultures were grown at 37° C. for ˜4 hours until the cultures reached an optical density of 2.0 at 600 nm. The cultures were cooled to 20° C. and induced with 1 mM IPTG. Fresh ampicillin was added to a final concentration of 50 μg/ml and the cells were grown overnight at 20° C.
Cell pellets (3 L) were lysed for purification to yield 15-24 mgs of purified NS5B. The lysis buffer consisted of 20 mM Tris-HCl, pH 7.4, 500 mM NaCl, 0.5% triton X-100, 1 mM DTT, 1 mM EDTA, 20% glycerol, 0.5 mg/ml lysozyme, 10 mM MgCl2, 15 ug/ml deoxyribonuclease I, and Complete TM protease inhibitor tablets (Roche). After addition of the lysis buffer, frozen cell pellets were resuspended using a tissue homogenizer. To reduce the viscosity of the sample, aliquots of the lysate were sonicated on ice using a microtip attached to a Branson sonicator. The sonicated lysate was centrifuged at 100,000×g for 1 hr at 4° C. and filtered through a 0.2 μm filter unit (Corning).
The protein was purified using three sequential chromatography steps: Heparin sepharose CL-6B, polyU sepharose 4B, and Hitrap SP sepharose (Pharmacia). The chromatography buffers were identical to the lysis buffer but contained no lysozyme, deoxyribonuclease I, MgCl2 or protease inhibitor and the NaCl concentration of the buffer was adjusted according to the requirements for charging the protein onto the column. Each column was eluted with a NaCl gradient which varied in length from 5-50 column volumes depending on the column type. After the final chromatography step, the resulting purity of the enzyme is >90% based on SDS-PAGE analysis. The enzyme was aliquoted and stored at −80° C.
Standard HCV NS5B RdRp enzyme assay. HCV RdRp genotype 1b assays were run in a final volume of 60 μl in 96 well plates (Costar 3912 H. The assay buffer is composed of 20 mM Hepes, pH 7.5, 2.5 mM KCl, 2.5 mM MgCl2, 1 mM DTT, 1.6 U RNAse inhibitor (Promega N2515), 0.1 mg/ml BSA (Promega R3961), and 2% glycerol. All compounds were serially diluted (3-fold) in DMSO and diluted further in water such that the final concentration of DMSO in the assay was 2%. HCV RdRp genotype 1b enzyme was used at a final concentration of 28 nM. A polyA template was used at 6 nM, and a biotinylated oligo-dT12 primer was used at 180 nM final concentration. Template was obtained commercially (Amersham 27-4110). Biotinylated primer was prepared by Sigma Genosys. 3H-UTP was used at 0.6 μCi (0.29 μM total UTP). Reactions were initiated by the addition of enzyme, incubated at 30° C. for 60 min, and stopped by adding 25 μl of 50 mM EDTA containing SPA beads (4 μg/μl, Amersham RPNQ 0007 H. Plates were read on a Packard Top Count NXT after >1 hr incubation at room temperature.
Modified HCV NS5B RdRp enzyme assay. A modified enzyme assay was performed essentially as described for the standard enzyme assay except for the following: The biotinylated oligo dT12 primer was precaptured on streptavidin-coated SPA beads by mixing primer and beads in assay buffer and incubating at room temperature for one hour. Unbound primer was removed after centrifugation. The primer-bound beads were resuspended in 20 mM Hepes buffer, pH 7.5 and used in the assay at final concentrations of 20 nM primer and 0.67 μg/μl beads. Order of addition in the assay: enzyme (14 nM) was added to diluted compound followed by the addition of a mixture of template (0.2 nM), 3H-UTP (0.6 μCi, 0.29 μM), and primer-bound beads, to initiate the reaction; concentrations given are final. Reactions were allowed to proceed for 4 hours at 30° C.
IC50 values for compounds were determined using seven different [I]. […]

[2] = test system: HCV replicon cells; experiment: HCV replicon FRET assay; format: cell-based
Source text: FRET Assay Preparation. To perform the HCV FRET screening assay, 96-well cell culture plates were used. The FRET peptide (Anaspec, Inc.) (Taliani et al., Anal Biochem. 1996, 240, 60-67) contains a fluorescence donor, EDANS, near one end of the peptide and an acceptor, DABCYL, near the other end. The fluorescence of the peptide is quenched by […] resonance energy transfer (RET) between the donor and the acceptor, but as the NS3 protease cleaves the peptide the products are released from RET quenching and the fluorescence of the donor becomes apparent. The assay reagent was made as follows: 5× cell Luciferase cell culture lysis reagent from Promega (#E153A) diluted to 1× with dH2O, NaCl added to 150 mM final, the FRET peptide diluted to 20 μM final from a 2 mM stock.
To prepare plates, HCV replicon cells, with or without a Renilla luciferase reporter gene, were trypsinized and placed into each well of a 96-well plate with titrated test compounds added in columns 3 through 12; columns 1 and 2 contained a control compound (HCV protease inhibitor), and the bottom row contained cells without compound. The plates were then placed in a CO2 incubator at 37° C.
Assays. Subsequent to addition of the test compounds described above (FRET Assay Preparation), at various times the plate was removed and Alamar blue solution (Trek Diagnostics, #00-100) was added per well as a measure of cellular toxicity. After reading in a Cytoflour 4000 instrument (PE Biosystems), plates were rinsed with PBS and then used for FRET assay by the addition of 30 ul of the FRET peptide assay reagent described above (FRET Assay Preparation) per well. The plate was then placed into the Cytoflour 4000 instrument which had been set to 340 excite/490 emission, automatic mode for 20 cycles and the plate read in a kinetic mode. Typically, the signal to noise using an endpoint analysis after the reads was at least three-fold. Alternatively, after Alamar blue reading, plates were rinsed with PBS, 50 ul of DMEM (high glucose) without phenol red was added and plates were then used for luciferase assay using the Promega Dual-Glo Luciferase Assay System.
Compound analysis was determined by quantification of the relative HCV replicon inhibition and the relative cytotoxicity values. To calculate cytoxicity values, the average Alamar Blue fluorescence signals from the control wells were set as 100% non-toxic. The individual signals in each of the compound test wells were then divided by the average control signal and multiplied by 100% to determine […]. To calculate the HCV replicon inhibition values, an average background value was obtained from the two wells containing the highest amount of HCV protease inhibitor at the end of the assay period. These numbers were similar to those obtained from naïve Huh-7 cells.
The background numbers were then subtracted from the average signal obtained from the control wells and this number was used as 100% activity. The individual signals in each of the compound test wells were then divided by the averaged control values after background subtraction and multiplied by 100% to determine percent activity. EC50 values for a protease inhibitor titration were calculated as the concentration which caused a 50% reduction in FRET or luciferase activity. The two numbers generated for the compound plate, percent cytoxicity and percent activity were used to determine compounds of interest for further analysis.

T1 sequence (Q9WMX2 2420-2992): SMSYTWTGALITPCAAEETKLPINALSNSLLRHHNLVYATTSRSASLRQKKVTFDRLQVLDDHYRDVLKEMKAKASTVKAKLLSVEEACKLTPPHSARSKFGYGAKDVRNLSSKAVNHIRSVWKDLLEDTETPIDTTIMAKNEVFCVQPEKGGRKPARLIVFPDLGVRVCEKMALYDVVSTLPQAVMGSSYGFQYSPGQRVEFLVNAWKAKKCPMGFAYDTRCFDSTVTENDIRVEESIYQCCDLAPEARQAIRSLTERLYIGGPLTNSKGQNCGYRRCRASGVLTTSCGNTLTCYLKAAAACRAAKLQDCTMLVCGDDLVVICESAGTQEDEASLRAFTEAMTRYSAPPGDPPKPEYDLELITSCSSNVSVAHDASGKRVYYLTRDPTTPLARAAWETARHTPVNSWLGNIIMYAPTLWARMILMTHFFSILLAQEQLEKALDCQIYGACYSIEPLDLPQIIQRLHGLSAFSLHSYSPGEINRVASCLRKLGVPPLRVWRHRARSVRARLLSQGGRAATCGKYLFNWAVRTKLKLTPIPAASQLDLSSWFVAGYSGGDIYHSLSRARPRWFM

Which results are given for `COc1ccc2c(c1)CC(c1ncc(CCC(=O)N3CCOCC3)o1)Cn1c-2c(C2CCCCC2)c2ccc(C(=O)O)cc21` (racemic) [Example 50, 13-Cyclohexyl-3-methoxy-6-(5-(3-(4-morpholinyl)-3-oxopropyl)-1,3-oxazol-2-yl)-6,7-dihydro-5H-indolo[2,1-a][2]benzazepine-10-carboxylic acid]?
IC50 [1]: 0.001 to 0.5 µM; EC50 ([2]; Hepatitis C virus): 0.001 to 0.5 µM

For `COc1ccc2c(c1)CC(c1ncc(CCC(=O)N3CCOCC3)o1)Cn1c-2c(C2CCCCC2)c2ccc(C(=O)O)cc21` (single isomer, unassigned) [Example 51, 13-Cyclohexyl-3-methoxy-6-(5-(3-(4-morpholinyl)-3-oxopropyl)-1,3-oxazol-2-yl)-6,7-dihydro-5H-indolo[2,1-a][2]benzazepine-10-carboxylic acid], which IC50 [1] is on record?
The IC50 was 0.001 to 0.5 µM.

And the EC50 [2]?
Its EC50 is over 0.5 µM.

Which IC50 [1] does the source give for `COc1ccc2c(c1)CC(c1ncc(CCC(=O)N3CCOCC3)o1)Cn1c-2c(C2CCCCC2)c2ccc(C(=O)O)cc21` (single isomer, unassigned) [Example 52, 13-Cyclohexyl-3-methoxy-6-(5-(3-(4-morpholinyl)-3-oxopropyl)-1,3-oxazol-2-yl)-6,7-dihydro-5H-indolo[2,1-a][2]benzazepine-10-carboxylic acid] here?
Its IC50 is 0.001 to 0.5 µM.

And the EC50 [2]?
Its EC50 is 0.001 to 0.5 µM.

Which IC50 [1] does the source give for `COc1ccc2c(c1)CC(c1ncc(CCC(=O)N3CCOCC3)o1)Cn1c-2c(C2CCCCC2)c2ccc(C(=O)NS(=O)(=O)N(C)C)cc21` (single isomer, unassigned) [Example 53, 13-Cyclohexyl-N-((dimethylamino)sulfonyl)-3-methoxy-6-(5-(3-(4-morpholinyl)-3-oxopropyl)-1,3-oxazol-2-yl)-6,7-dihydro-5H-indolo[2,1-a][2]benzazepine-10-carboxamide] here?
The IC50 was 0.001 to 0.5 µM.

What about the EC50 ([2]; Hepatitis C virus) of the same compound?
The EC50 was 0.001 to 0.5 µM.

`COc1ccc2c(c1)C[C@H](c1ncc(CCC(=O)N3CCOCC3)o1)Cn1c-2c(C2CCCCC2)c2ccc(C(=O)NS(=O)(=O)N(C)C)cc21` (single isomer, unassigned) [Example 54, 13-cyclohexyl-N-((dimethylamino)sulfonyl)-3-methoxy-6-(5-(3-(4-morpholinyl)-3-oxopropyl)-1,3-oxazol-2-yl)-6,7-dihydro-5H-indolo[2,1-a][2]benzazepine-10-carboxamide] was tested. Which IC50 [1] did it give?
Its IC50 is 0.001 to 0.5 µM.

What about the EC50 ([2]; Hepatitis C virus) of the same compound?
Its EC50 is 0.001 to 0.5 µM.

How did the IC50 [1] turn out when `COC(=O)c1ccc2c(C3CCCCC3)c3n(c2c1)CC(c1nnn[nH]1)=Cc1ccccc1-3` [Example 1, 13-cyclohexyl-6-(1H-tetrazol-5-yl)-7H-indolo[2,1-a][2]benzazepine-10-carboxylic acid, methyl ester] was run?
The IC50 was over 0.5 µM.

And the EC50 ([2]; Hepatitis C virus)?
The EC50 was over 0.5 µM.

Which results are given for `CCn1nnc(C2=Cn3c(c(C4CCCCC4)c4ccc(C(=O)O)cc43)-c3ccccc3C2)n1` [Example 2, 13-cyclohexyl-6-(2-ethyl-2H-tetrazol-5-yl)-5H-indolo[2,1-a][2]benzazepine-10-carboxylic acid]?
IC50 [1]: 0.001 to 0.5 µM; EC50 ([2]; Hepatitis C virus): > 0.5 µM

What does the source list for `CCn1nnc(C2=Cc3ccccc3-c3c(C4CCCCC4)c4ccc(C(=O)O)cc4n3C2)n1` [Example 3, 13-cyclohexyl-6-(2-ethyl-2H-tetrazol-5-yl)-7H-indolo[2,1-a][2]benzazepine-10-carboxylic acid]?
IC50 [1]: 0.001 to 0.5 µM; EC50 ([2]; Hepatitis C virus): > 0.5 µM

Which results are given for `CCn1nnc(C2=Cc3ccccc3-c3c(C4CCCCC4)c4ccc(C(=O)NS(=O)(=O)N(C)C)cc4n3C2)n1` [Example 4]?
IC50 [1]: 0.001 to 0.5 µM; EC50 ([2]; Hepatitis C virus): > 0.5 µM

For `O=C(O)c1ccc2c(C3CCCCC3)c3n(c2c1)CC(c1nnn(CCO)n1)=Cc1ccccc1-3` [Example 5, 13-cyclohexyl-6-[2-(2-hydroxyethyl)-2H-tetrazol-5-yl]-7H-indolo[2,1-a][2]benzazepine-10-carboxylic acid], which IC50 [1] is on record?
Its IC50 is over 0.5 µM.

What about the EC50 ([2]; Hepatitis C virus) of the same compound?
The EC50 was over 0.5 µM.

Which results are given for `O=C(O)c1ccc2c(C3CCCCC3)c3n(c2c1)CC(c1nnn(CC2CC2)n1)=Cc1ccccc1-3` [Example 6, 13-cyclohexyl-6-[2-(cyclopropylmethyl)-2H-tetrazol-5-yl]-7H-indolo[2,1-a][2]benzazepine-10-carboxylic acid]?
IC50 [1]: > 0.5 µM; EC50 ([2]; Hepatitis C virus): > 0.5 µM

`O=C(O)c1ccc2c(C3CCCCC3)c3n(c2c1)C=C(c1nnn(CC2CC2)n1)Cc1ccccc1-3` [Example 7, 13-cyclohexyl-6-[2-(cyclopropylmethyl)-2H-tetrazol-5-yl]-5H-indolo[2,1-a][2]benzazepine-10-carboxylic acid] was tested. Which IC50 [1] did it give?
Its IC50 is over 0.5 µM.

What about the EC50 ([2]; Hepatitis C virus) of the same compound?
Its EC50 is over 0.5 µM.

How did the IC50 [1] turn out when `O=C(O)c1ccc2c(C3CCCCC3)c3n(c2c1)CC(c1nnn(CC2CCCO2)n1)=Cc1ccccc1-3` (stereo not shown) [Example 8, 13-cyclohexyl-6-[2-[(tetrahydro-2-furanyl)methyl]-2H-tetrazol-5-yl]-5H-indolo[2,1-a][2]benzazepine-10-carboxylic acid] was run?
Its IC50 is 0.001 to 0.5 µM.

What about the EC50 ([2]; Hepatitis C virus) of the same compound?
Its EC50 is over 0.5 µM.

`COC(=O)c1ccc2c(C3CCCCC3)c3n(c2c1)CC(c1ncc(CCC(=O)N2CCOCC2)o1)Cc1cc(OC)ccc1-3` (stereo not shown) [Example 49, Methyl 13-cyclohexyl-3-methoxy-6-(5-(3-(4-morpholinyl)-3-oxopropyl)-1,3-oxazol-2-yl)-6,7-dihydro-5H-indolo[2,1-a][2]benzazepine-10-carboxylate] was tested. Which IC50 [1] did it give?
Its IC50 is over 0.5 µM.

With `COC(=O)c1ccc2c(C3CCCCC3)c3n(c2c1)CC(c1ncco1)=Cc1cc(OC)ccc1-3` [Example 55, Methyl 13-cyclohexyl-3-methoxy-6-(1,3-oxazol-2-yl)-7H-indolo[2,1-a][2]benzazepine-10-carboxylate] as the compound, how does the IC50 [1] read?
Its IC50 is over 0.5 µM.
